Laboratory results from ChEMBL document CHEMBL4665869, “New thiazolopyrimidine as anticancer agents: Synthesis, biological evaluation, DNA binding, molecular modeling and ADMET study” (Bioorg Med Chem Lett, 2020).

Columns and labels:
Assay type in all cases: functional
Conditions in all cases: read-out: GI
MDA-MB-231 = experiment: Growth inhibition of human MDA-MB-231 cells at 10 uM relative to control
K562 = experiment: Growth inhibition of human K562 cells at 10 uM relative to control
PC-3 = experiment: Growth inhibition of human PC-3 cells at 10 uM relative to control
MCF7 = experiment: Growth inhibition of human MCF7 cells at 10 uM relative to control
COLO 205 = experiment: Growth inhibition of human COLO 205 cells at 10 uM relative to control
KM12 = experiment: Growth inhibition of human KM12 cells at 10 uM relative to control
HT-29 = experiment: Growth inhibition of human HT-29 cells at 10 uM relative to control
SNB-75 = experiment: Growth inhibition of human SNB-75 cells at 10 uM relative to control
Malme-3M = experiment: Growth inhibition of human Malme-3M cells at 10 uM relative to control
HOP-92 = experiment: Growth inhibition of human HOP-92 cells at 10 uM relative to control
RPMI-8226 = experiment: Growth inhibition of human RPMI-8226 cells at 10 uM relative to control
SN12C = experiment: Growth inhibition of human SN12C cells at 10 uM relative to control
OVCAR-4 = experiment: Growth inhibition of human OVCAR-4 cells at 10 uM relative to control
T47D = experiment: Growth inhibition of human T47D cells at 10 uM relative to control
IGROV-1 = experiment: Growth inhibition of human IGROV-1 cells at 10 uM relative to control
SK-MEL-2 = experiment: Growth inhibition of human SK-MEL-2 cells at 10 uM relative to control
UACC-62 = experiment: Growth inhibition of human UACC-62 cells at 10 uM relative to control
SW-620 = experiment: Growth inhibition of human SW-620 cells at 10 uM relative to control
DU-145 = experiment: Growth inhibition of human DU-145 cells at 10 uM relative to control
NCI-H322M = experiment: Growth inhibition of human NCI-H322M cells at 10 uM relative to control
SK-OV-3 = experiment: Growth inhibition of human SK-OV-3 cells at 10 uM relative to control
A549 = experiment: Growth inhibition of human A549 cells at 10 uM relative to control
CCRF-CEM = experiment: Growth inhibition of human CCRF-CEM cells at 10 uM relative to control
NCI/ADR-RES = experiment: Growth inhibition of human NCI/ADR-RES cells at 10 uM relative to control
UACC-257 = experiment: Growth inhibition of human UACC-257 cells at 10 uM relative to control
OVCAR-5 = experiment: Growth inhibition of human OVCAR-5 cells at 10 uM relative to control
U-251 = experiment: Growth inhibition of human U-251 cells at 10 uM relative to control
MOLT-4 = experiment: Growth inhibition of human MOLT-4 cells at 10 uM relative to control
SK-MEL-28 = experiment: Growth inhibition of human SK-MEL-28 cells at 10 uM relative to control
CAKI-1 = experiment: Growth inhibition of human CAKI-1 cells at 10 uM relative to control

**Q.** How did the inhibition of growth at 10 µM (MDA-MB-231) turn out when CC1=CN2C(=NC(/C=C/c3ccc(Cl)cc3)=CC2c2ccc(Cl)cc2)S1 (stereo not given) was run?
**A.** Its inhibition of growth at 10 µM is < 10%.

**Q.** What about the inhibition of growth at 10 µM (K562) of the same compound?
**A.** Its inhibition of growth at 10 µM is < 10%.

**Q.** And the inhibition of growth at 10 µM (PC-3)?
**A.** The inhibition of growth at 10 µM was < 10%.

**Q.** And the inhibition of growth at 10 µM (MCF7)?
**A.** The inhibition of growth at 10 µM was < 10%.

**Q.** And the inhibition of growth at 10 µM (COLO 205)?
**A.** The inhibition of growth at 10 µM was < 10%.

**Q.** And the inhibition of growth at 10 µM (KM12)?
**A.** Its inhibition of growth at 10 µM is < 10%.

**Q.** What about the inhibition of growth at 10 µM (HT-29) of the same compound?
**A.** Its inhibition of growth at 10 µM is < 10%.

**Q.** And the inhibition of growth at 10 µM (SNB-75)?
**A.** The inhibition of growth at 10 µM was 17.3%.

**Q.** And the inhibition of growth at 10 µM (Malme-3M)?
**A.** Its inhibition of growth at 10 µM is < 10%.

**Q.** What about the inhibition of growth at 10 µM (HOP-92) of the same compound?
**A.** The inhibition of growth at 10 µM was < 10%.

**Q.** And the inhibition of growth at 10 µM (RPMI-8226)?
**A.** Its inhibition of growth at 10 µM is < 10%.

**Q.** And the inhibition of growth at 10 µM (SN12C)?
**A.** The inhibition of growth at 10 µM was < 10%.

**Q.** What about the inhibition of growth at 10 µM (OVCAR-4) of the same compound?
**A.** The inhibition of growth at 10 µM was < 10%.

**Q.** And the inhibition of growth at 10 µM (T47D)?
**A.** The inhibition of growth at 10 µM was < 10%.

**Q.** What about the inhibition of growth at 10 µM (IGROV-1) of the same compound?
**A.** Its inhibition of growth at 10 µM is < 10%.

**Q.** What about the inhibition of growth at 10 µM (SK-MEL-2) of the same compound?
**A.** Its inhibition of growth at 10 µM is < 10%.

**Q.** What about the inhibition of growth at 10 µM (UACC-62) of the same compound?
**A.** Its inhibition of growth at 10 µM is < 10%.

**Q.** And the inhibition of growth at 10 µM (SW-620)?
**A.** The inhibition of growth at 10 µM was < 10%.

**Q.** What about the inhibition of growth at 10 µM (DU-145) of the same compound?
**A.** Its inhibition of growth at 10 µM is < 10%.

**Q.** What about the inhibition of growth at 10 µM (NCI-H322M) of the same compound?
**A.** The inhibition of growth at 10 µM was < 10%.

**Q.** What about the inhibition of growth at 10 µM (SK-OV-3) of the same compound?
**A.** The inhibition of growth at 10 µM was < 10%.

**Q.** And the inhibition of growth at 10 µM (A549)?
**A.** The inhibition of growth at 10 µM was < 10%.

**Q.** What about the inhibition of growth at 10 µM (CCRF-CEM) of the same compound?
**A.** The inhibition of growth at 10 µM was < 10%.

**Q.** And the inhibition of growth at 10 µM (NCI/ADR-RES)?
**A.** The inhibition of growth at 10 µM was < 10%.

**Q.** What about the inhibition of growth at 10 µM (UACC-257) of the same compound?
**A.** The inhibition of growth at 10 µM was < 10%.

**Q.** What about the inhibition of growth at 10 µM (OVCAR-5) of the same compound?
**A.** Its inhibition of growth at 10 µM is < 10%.

**Q.** And the inhibition of growth at 10 µM (U-251)?
**A.** Its inhibition of growth at 10 µM is < 10%.

**Q.** And the inhibition of growth at 10 µM (MOLT-4)?
**A.** Its inhibition of growth at 10 µM is < 10%.

**Q.** And the inhibition of growth at 10 µM (SK-MEL-28)?
**A.** The inhibition of growth at 10 µM was < 10%.

**Q.** And the inhibition of growth at 10 µM (CAKI-1)?
**A.** The inhibition of growth at 10 µM was < 10%.
